From PMC10747913, “Preparation of ^18F-Labeled Tracers Targeting Fibroblast Activation Protein via Sulfur [^18F]Fluoride Exchange Reaction” (Pharmaceutics, 2023)
“Also recorded” adds a separate entry of the source.

Experiments:
[1] = Description: Microsome experiments with [^18F]12 in the presence of NADPH were performed according to the procedure recently described by us with slight modifications. […] The radiotracer dissolved in EtOH (4 µL; 5 MBq/µL) was diluted with PBS (496 µL, 0.8% EtOH). This radiotracer solution (100 µL, 0.32% EtOH and 16 MBq/mL or 1.6 µM final) was mixed with PBS (112.5 µL) and human liver microsomes (12.5 µL of 20 mg/mL stock; 1 mg/mL final; Gibco™ Cat. No. HMMCPL, Lot. No. PL050E-B) in a 1.5 mL Eppendorf tube and the mixture was warmed for 5 min at 37 °C. Subsequently, NADPH (25 µL of freshly prepared 20 mM solution in PBS, 2 mM final) was added and the mixture was incubated at 37 °C. As a control incubation, NADPH was omitted and replaced by PBS. After distinct time points (10, 20, 30 and 60 min), an aliquot (40 µL) was withdrawn and added to ice-cooled CH3CN (160 µL). The mixture was vortexed for 30 s, stored on ice for 4 min and centrifuged (5 min at 15,000 rpm). The resulting supernatant was used for radio-HPLC analysis using the Shimadzu system described in Section 2.2 with the following conditions. A C18 column Kinetex® from Phenomenex (5 µm, 100 Å, LC Column 250 × 4.6 mm) served as stationary phase. The eluent consisted of (A) 0.1% trifluoroacetic acid in H2O and (B) MeCN; flow rate 1 mL/min; elution profile A/B: t0 min 70/30–t10.0 min 70/30–t11.0 min 5/95–t16.0 min 5/95–t17.0 min 70/30–t22.0 min 70/30.
Testosterone (40 µM final) was used as a positive control for the activity of the HLM and was separately incubated under the conditions described above (0% EtOH final).

[2] = LogD7.4 determination by n-octanol/PBS partitioning; assay type: physicochemical; conditions: n-octanol/phosphate-buffered saline; partitioning between PBS pH 7.4 and octanol
Description: The LogD7.4 determination of [^18F]12 was determined in a similar manner as previously described and proceeded as follows. [^18F]12 (1 μL, ca. 0.5 MBq) was pipetted into an Eppendorf tube containing 600 μL of n-octanol (presaturated with phosphate-buffered saline) and 600 μL of phosphate-buffered saline buffer (0.02 M, pH = 7.4). The tube was vortexed for 15 min at room temperature, and the two phases were separated by centrifugation at 5000 rpm for 3 min. An aliquot (400 µL) from the n-octanol layer was pipetted in a vial containing phosphate-buffered saline (400 µL), the sample mixture was vortexed for 15 min at room temperature and the two phases were separated by centrifugation at 5000 rpm for 3 min. Aliquots (250 µL) from each phase were taken and measured with an automatic γ-counter after subtracting the background activity. The transfer of the aqueous phase requires particular care, as described by Linclau et al.. The partition coefficient was calculated for the acquired samples using Equation (1). (1) logD7.4=log counts per minute (octanol)/counts per minute (phosphate buffer)

[3] = Small-animal PET distribution in healthy mice; assay type: in vivo, BALB/cJRj mice
Description: All animal experiments were carried out according to the guidelines of the German Regulation for Animal Welfare. The protocol was approved by the local Ethical Committee for Animal Experiments. Small-animal PET was performed using the nanoScan® PET/CT (Mediso Medical Imaging Systems, Budapest, Hungary). Each animal (BALB/cJRj mice, n = 2) received an intravenous injection of 10 MBq [^18F]12 delivered in 0.15 mL of 0.154 mol/L NaClaq through a tail vein catheter. Emission of annihilation photons was recorded continuously for 2 h. A corresponding X-ray CT image was recorded and used for anatomical referencing and attenuation correction. List-mode data were sorted into sinograms with 36 frames (15 × 10 s, 5 × 30 s, 5 × 60 s, 4 × 300 s, 3 × 600 s, 4 × 900 s) and reconstructed using the Tera-Tomo™ 3D algorithm, applying corrections for decay, scatter and attenuation. […] Three-dimensional regions of interest (ROI) were created, applying fixed contrast thresholds for delineation of blood (heart content, 80%), liver (80%), kidneys (50%), bone (knee and shoulder joints, 50%), gall bladder and intestine (5%) and urinary bladder (10%). Organ-specific activity concentrations were determined as ROI-averaged standardized uptake values at mid-frame time (SUVmean). Time–activity curves were drawn using Prism 9.0 (GraphPad Software, La Jolla, CA, USA) and the activity retention within each organ was reported as the area under the curve (AUC). Excreted activity fractions were determined as the percent of the initially administered activity dose (%ID).

Stability in EtOH = assay type: physicochemical; conditions: 120 min
Description: In addition, we performed a series of stability studies of compounds [^18F]12 and [^18F]13 in EtOH, phosphate-buffered saline (PBS, pH 7.4) and human serum (37 °C) to provide an indication of the rates of in vivo defluorination. […] These findings correlate with the unwanted accumulation of activity in the bones and joints obtained during PET imaging experiments in a healthy mice (Figure 5A,B).

[4] = Liver cytosol assay (RLC); assay type: in vitro ADME, rat; conditions: 2 mg/mL RLC, up to 60 min, 37 °C
Description: (§1) Liver cytosol experiments with [^18F]12 were performed according to reported procedures.
(§2) Vanilin (40 µM final) was used as positive control for the activity of the liver cytosols and was separately incubated under the conditions described above (1% EtOH final). […] More than 80% of the vanilin had been degraded after 60 min in the presence of HLC, while around 60% of the vanilin had been degraded with RLC. There was no change in the degradation rate with and without 1% EtOH in the incubation mixture.

[5] = Liver cytosol assay (HLC); assay type: in vitro ADME, human; conditions: for stability toward HLC: 2 mg/mL HLC, up to 60 min, 37 °C
Description: as §1, §2

[6] = Serum stability assay at 37 °C (radio-UHPLC); assay type: in vitro ADME, human
Description: Either [^18F]12 or [^18F]13 (20–40 MBq) in 40 µL EtOH aliquots was incubated with 360 µL human serum (Sigma Aldrich, Darmstadt, Germany) at 37 °C. After specific time intervals (5–120 min), 40 µL samples were taken from the serum incubation mixture, added to 80 µL “Supersol” solubilizing agent (see Supplementary Materials Table S6) and cooled over ice for 2 min. Thereafter, the cooled mixture was centrifuged at 4 °C (15,000 rpm) for 3 min and 80 µL of the supernatant solution was monitored with radio-UHPLC. A gradient of 5% to 45% acetonitrile in 7.5 min was used for enhanced separation.
(§3) The radiochemical purity and identity of [^18F]12 and [^18F]13 was analyzed with radio-HPLC. […] Prior to a biological evaluation, preliminary stability studies of [^18F]12 and [^18F]13 were performed in human serum at 37 °C (Figure 3A,B). The stability studies were performed by taking an aliquot of the radiolabeled product solution and incubating the product mixture in the desired solvent or human serum at 37 °C for the given time points. In both cases, decomposition of [^18F]12 and [^18F]13 was evident from the first peak in the radioactive channel (tR: 0.6–1.0), most likely due to the release of [^18F]fluoride, which could be detected using UHPLC analysis from the first time point of 15 min and continued until 120 min. After 60 min, approximately 20% of [^18F]12 and 19% of [^18F]13 had been degraded; following a 120 min incubation, approximately 38% of both [^18F]12 and [^18F]13 had been degraded.

[7] = Stability in PBS (pH 7.4); assay type: physicochemical; conditions: PBS pH 7.4, 120 min
Description: as §3

In the case of `N#C[C@@H]1CC(F)(F)CN1C(=O)CNC(=O)c1ccnc2ccc(OCCCN3CCN(C(=O)c4ccc(OS(=O)(=O)[18F])cc4)CC3)cc12` [[^18F]12], the “half-time toward HLM” value ([1]; 1 mg/mL HLM, 2 mM NADPH, 1.6 µM tracer, 37 °C, one-phase decay) is reported as 4.4 min, the “stability in presence of HLM without NADPH (control)” value ([1]; NADPH omitted, 60 min) is reported as “apparently stable” and the logD [2] is reported as 1.81. For the same compound, the “time of maximum activity concentration in kidney” value ([3]; i.v., after injection) was 2 min, the “time of maximum activity concentration in liver” value ([3]; i.v., after injection) was 2 min and the “activity concentration in bones” value ([3]; i.v., within 2 h) was “continuously increasing”. For the same compound, the “fraction of initially delivered activity dose excreted via hepatobiliary pathway” value ([3]; retention in gall bladder and intestine, 2 h) was 45%, the “fraction of initially delivered activity dose excreted via renal pathway” value ([3]; retention in urinary bladder, 2 h) was 10% and the “stability in EtOH” value (Stability in EtOH) was “stable”. For the same compound, the “stability toward RLC” value [4] was “largely stable; also recorded: mostly stable”, the “stability toward RLC” value ([4]; listed as [18F]12) was “No degradation” and the “stability toward HLC” value [5] was “largely stable; also recorded: mostly stable”. For the same compound, the “stability toward HLC” value ([5]; listed as [18F]12) was “No degradation”, the “substrate of aldehyde oxidase (AO)” value ([5]; liver cytosols as source of AO) was “not to be a substrate of AO” and the “fraction degraded in human serum” value ([6]; 120 min incubation) was “approximately 38%”. The “fraction degraded in human serum” value ([6]; after 60 min) was “approximately 20%”, the “stability in human serum” value ([6]; after only 15 min) was “clear signs of instability” and the “stability in PBS” value [7] was “stable”.
